Tests used:
Assay in all cases: relative viability (nuclei count vs DMSO), 5 days (fraction); higher = more cells survive
[1] = compound: CNC(=O)c1ccccc1Sc1ccc2c(/C=C/c3ccccn3)n[nH]c2c1 [Axitinib] + COc1cc2c(Oc3ccc(NC(=O)C4(C(=O)Nc5ccc(F)cc5)CC4)cc3F)ccnc2cc1OCCCN1CCOCC1 [Foretinib] (partner 0.25 µM)
How it was run: (§1)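 For relative viability, nuclei counts in treated wells were divided by those in vehicle wells. Lung cancer cell lines had been pin-tool dosed in 1536-well plates the day after seeding and cultured for 5 days, then fixed and stained in one step (final 0.05% Triton X-100, 1% formaldehyde, 1 ug/ml Hoechst) and imaged at 4×. Doses were one drug alone or a fixed anchor-drug dose plus five library-drug doses (not always all listed) in √10 steps, and values are duplicate-plate medians.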

[2] = compound: CNC(=O)c1ccccc1Sc1ccc2c(/C=C/c3ccccn3)n[nH]c2c1 [Axitinib] + Nc1nc2[nH]cc(CCc3ccc(C(=O)N[C@@H](CCC(=O)O)C(=O)O)cc3)c2c(=O)[nH]1 [Pemetrexed] (partner 0.2 µM)
How it was run: as §1

[3] = compound: Nc1nc(Nc2ccc3c(c2)CC[C@@H](N2CCCC2)CC3)nn1-c1cc2c(nn1)-c1ccccc1CCC2 [Bemcentinib] + Cc1nc(Nc2ncc(C(=O)Nc3c(C)cccc3Cl)s2)cc(N2CCN(CCO)CC2)n1 [Dasatinib] (partner 0.075 µM)
How it was run: as §1

[4] = compound: Nc1nc(Nc2ccc3c(c2)CC[C@@H](N2CCCC2)CC3)nn1-c1cc2c(nn1)-c1ccccc1CCC2 [Bemcentinib] + Nc1nc2[nH]cc(CCc3ccc(C(=O)N[C@@H](CCC(=O)O)C(=O)O)cc3)c2c(=O)[nH]1 [Pemetrexed] (partner 0.2 µM)
How it was run: as §1

| Cell Line | relative viability ([1]; first compound 0.005 µM) | relative viability ([1]; first compound 0.01581 µM) | relative viability ([1]; first compound 0.05 µM) | relative viability ([1]; first compound 0.1581 µM) | relative viability ([1]; first compound 0.5 µM) | relative viability ([2]; first compound 0.005 µM) | relative viability ([2]; first compound 0.01581 µM) | relative viability ([2]; first compound 0.05 µM) | relative viability ([2]; first compound 0.1581 µM) | relative viability ([2]; first compound 0.5 µM) | relative viability ([3]; first compound 0.04 µM) | relative viability ([3]; first compound 0.1265 µM) | relative viability ([3]; first compound 0.4 µM) | relative viability ([3]; first compound 1.265 µM) | relative viability ([3]; first compound 4 µM) | relative viability ([4]; first compound 0.04 µM) | relative viability ([4]; first compound 0.1265 µM) | relative viability ([4]; first compound 0.4 µM) | relative viability ([4]; first compound 1.265 µM) | relative viability ([4]; first compound 4 µM) |
| --- | --- | --- | --- | --- | --- | --- | --- | --- | --- | --- | --- | --- | --- | --- | --- | --- | --- | --- | --- | --- |
| HCC-366 | 0.949 | 0.958 | 0.865 | 0.966 | 0.977 | 0.151 | 0.168 | 0.182 | 0.208 | 0.224 | 0.544 | 0.621 | 0.621 | 0.852 | 0.659 | 0.175 | 0.185 | 0.179 | 0.173 | 0.157 |
| HCC-827 | 1.06 | 0.984 | 1.04 | 1.01 | 1.13 | 0.228 | 0.158 | 0.279 | 0.296 | 0.275 | 0.305 | 0.385 | 0.273 | 0.4 | 0.3 | 0.267 | 0.267 | 0.266 | 0.262 | 0.286 |
| HOP-62 | 1.07 | 1.14 | 1.06 | 1.09 | 1.3 | 0.378 | 0.328 | 0.31 | 0.41 | 0.482 | 0.639 | 0.656 | 0.768 | 0.552 | 0.718 | 0.348 | 0.357 | 0.385 | 0.37 | 0.359 |
| IA-LM | 1.27 | 1.14 | 1.13 | 1.09 | 1.35 | – | – | – | – | – | – | – | – | – | – | – | – | – | – | – |
| LC-2-ad | 0.871 | 0.891 | 0.917 | 0.761 | 0.959 | 0.261 | 0.257 | 0.268 | 0.271 | 0.277 | 0.308 | 0.597 | 0.659 | 0.669 | 0.557 | 0.252 | 0.28 | 0.258 | 0.262 | 0.273 |
| LCLC-97TM1 | 0.847 | 0.977 | 0.926 | 0.896 | 0.918 | 0.203 | 0.188 | 0.176 | 0.186 | 0.181 | 0.851 | 0.818 | 0.736 | 0.851 | 0.975 | 0.16 | 0.177 | 0.182 | 0.177 | 0.177 |
| LCLC-103H | 0.747 | 0.867 | 0.787 | 0.764 | 0.85 | 0.507 | 0.443 | 0.496 | 0.477 | 0.526 | 0.419 | 0.192 | 0.478 | 0.393 | 0.531 | 0.422 | 0.478 | 0.428 | 0.455 | 0.434 |
| LK-2 | 1.31 | 1.03 | 1.06 | 1.1 | 1.42 | 0.26 | 0.216 | 0.234 | 0.258 | 0.242 | 0.248 | 0.246 | 0.31 | 0.27 | 0.349 | 0.246 | 0.323 | 0.294 | 0.256 | 0.294 |
| LOU-NH91 | 0.917 | 0.659 | 0.981 | 0.962 | 0.957 | 0.392 | 0.402 | 0.406 | 0.421 | 0.395 | 0.508 | 0.568 | 0.59 | 0.335 | 0.61 | 0.408 | 0.369 | 0.4 | 0.45 | 0.376 |
| LU99A | 0.901 | 0.851 | 0.818 | 0.894 | 0.936 | 0.196 | 0.203 | 0.182 | 0.175 | 0.204 | 0.489 | 0.568 | 0.519 | 0.661 | 0.573 | 0.139 | 0.321 | 0.241 | 0.154 | 0.16 |
| LXF-289 | 1.07 | 0.902 | 0.913 | 0.983 | 1.05 | 1.01 | 0.91 | 0.968 | 0.888 | 0.982 | 0.206 | 0.178 | 0.212 | 0.241 | 0.187 | 0.907 | 0.974 | 0.984 | 0.993 | 0.92 |
| NCI-H23 | 1.06 | 0.948 | 1.06 | 0.955 | 1.02 | 0.678 | 0.751 | 0.583 | 0.665 | 0.713 | 0.476 | 0.884 | 0.985 | 0.632 | 0.828 | 0.626 | 0.724 | 0.941 | 0.763 | 0.738 |
| NCI-H322M | 1.18 | 0.926 | 0.922 | 0.859 | 1.12 | 0.586 | 0.691 | 0.679 | 0.628 | 0.627 | 0.229 | 0.279 | 0.251 | 0.267 | 0.258 | 0.625 | 0.633 | 0.659 | 0.704 | 0.618 |
| NCI-H522 | – | – | – | – | – | 1.22 | 1.14 | 1.07 | 1.07 | 0.944 | 0.768 | 0.975 | 0.886 | 0.844 | 0.829 | 1.03 | 0.908 | 0.897 | 1.04 | 1.18 |
| NCI-H727 | 1.23 | 0.837 | 0.896 | 0.982 | 1.15 | – | – | – | – | – | 0.394 | 0.4 | 0.319 | 0.337 | 0.441 | – | – | – | – | – |
| NCI-H1299 | 1.06 | 1.04 | 1.08 | 1.08 | 1.24 | – | – | – | – | – | – | – | – | – | – | – | – | – | – | – |
| NCI-H1623 | 0.948 | 0.846 | 0.758 | 0.838 | 0.885 | – | – | – | – | – | 0.51 | 0.504 | 0.528 | 0.639 | 0.473 | – | – | – | – | – |
| NCI-H1648 | – | – | – | – | – | 0.726 | 0.764 | 0.702 | 0.958 | 0.758 | – | – | – | – | – | 0.717 | 0.761 | 0.818 | 0.697 | 0.841 |
| NCI-H1703 | 0.362 | 0.292 | 0.376 | 0.371 | 0.325 | – | – | – | – | – | – | – | – | – | – | – | – | – | – | – |
| NCI-H1792 | – | – | – | – | – | 1.05 | 0.784 | 0.786 | 0.816 | 0.792 | 0.859 | 0.956 | 1.17 | 0.91 | 0.873 | 0.918 | 0.988 | 1.06 | 0.68 | 0.85 |

Reference: the supplement of paper PMC10307832
